Source: paper PMC3038857, “Using Nuclear Receptor Activity to Stratify Hepatocarcinogens” (PLoS ONE, 2011)
Where two headings read alike, the source gives them in different places.

Legend:
Mouse Liver [1] = conditions: ref ToxRefDB, cited from earlier work
Mouse Liver [2] = conditions: ref ToxRefDB, cited from earlier work; remark: listed apart in the source
Rat Liver [3] = conditions: ref ToxRefDB, cited from earlier work
Rat Liver [4] = conditions: ref ToxRefDB, cited from earlier work; remark: listed apart in the source
Rat Liver [5] = conditions: ref ToxRefDB, cited from earlier work; remark: listed apart in the source
CYP2B6 = assay: CLZD_CYP2B6: Change in expression of CYP2B6 (primary human hepatocytes); type: cell-based; conditions: 24 hr
Procedure: (§1) This is a collection of multiplexed gene expression assays focused on Phase I and II xenobiotic metabolizing enzymes and transporters. Human primary cell cultures were treated with chemicals at 5 concentrations (0.004-40 [drawing 42] M) for 6, 24 and 48 hr. Concentration- and time-response profiles of chemicals were measured by the expression of key nuclear receptor target genes, activities of CYP1A enzymes (EROD), and cell morphology. Fourteen gene targets were monitored by quantitative nuclease protection assay including: six representative cytochrome P-450 genes, four hepatic transporters, three Phase II conjugating enzymes, and one endogenous metabolism gene involved in cholesterol synthesis. The target genes associated with nuclear receptor pathways are as follows: [drawing 43] and [drawing 44] with [drawing 45]; [drawing 46] , [drawing 47] , [drawing 48] , [drawing 49] , [drawing 50] and [drawing 51] with [drawing 52]; [drawing 53] , [drawing 54] , [drawing 55] and [drawing 56] with [drawing 57]; [drawing 58] with [drawing 59]; and [drawing 60] with [drawing 61] . Assays were run in primary human hepatocyte cultures by CellzDirect Invitrogen Inc. (Durham, NC), in collaboration with EPA.
(§2) Multiplexed Gene Expression in Human Primary Hepatocytes: This is a collection of multiplexed gene expression assays focused on Phase I and II metabolic enzymes and transporters. […] Fourteen gene targets were monitored by quantitative nuclease protection assay: six representative cytochrome P450 genes, four hepatic transporters, three Phase II conjugating enzymes, and one endogenous metabolism gene involved in cholesterol synthesis. Cells were exposed at 5 concentrations (0.004-40 µM) for 6, 24 or 48 hr. Gene targets are sentinels for five nuclear receptor signaling pathways: AhR, CAR, PXR, FXR, and PPARα. All gene are associated with nuclear receptor pathways: CYP1A1 and CYP1A2 with AHR; ABCB1, ABCG2, CYP2B6, CYP2C9, CYP2C19 and UGT1A1 with CAR; CYP3A4, GSTA2, SLCO1B1 and SULT2A1 with PXR; HMGCS2 with PPARA; and ABCB11 with FXR. […] Detailed description of the methods, data and analysis methods for this dataset will be presented in a separate publication.

CYP3A4 = assay: CLZD_CYP3A4: Change in expression of CYP3A4 (primary human hepatocytes); type: cell-based; conditions: 24 hr
Procedure: as §1, §2

PXR (NR1I2) [6] = target: T1, PXR (NR1I2) (Homo sapiens, UniProt O75469); assay: ATG_PXRE_CIS: Factorial reporter gene assay (HepG2); type: cell-based; parameters: endogenous in cells; host or cells: HepG2
T1 sequence (O75469 1-434): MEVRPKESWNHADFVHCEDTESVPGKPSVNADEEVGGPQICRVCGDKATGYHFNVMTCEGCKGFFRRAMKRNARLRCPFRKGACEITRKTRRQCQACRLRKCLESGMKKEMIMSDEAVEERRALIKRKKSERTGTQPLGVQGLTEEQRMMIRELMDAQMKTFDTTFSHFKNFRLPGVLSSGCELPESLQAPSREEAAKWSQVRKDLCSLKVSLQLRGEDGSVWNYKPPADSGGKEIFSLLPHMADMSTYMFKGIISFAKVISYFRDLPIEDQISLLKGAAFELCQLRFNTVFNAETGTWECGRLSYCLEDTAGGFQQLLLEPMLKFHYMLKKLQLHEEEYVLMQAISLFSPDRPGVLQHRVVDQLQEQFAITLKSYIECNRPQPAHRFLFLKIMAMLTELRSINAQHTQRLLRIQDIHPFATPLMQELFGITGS
Procedure: (§3) A multiple reporter transcription unit (MRTU) library consisting of 48 transcription factor binding sites was transfected into the HepG2 human liver hepatoma cell line. In addition to the cis-acting reporter genes (CIS), a modification of the approach was used to generate a trans-system (TRANS) with a mammalian one-hybrid assay consisting of an additional 25 MRTU library reporting the activity of nuclear receptor super-family members. […] These assays were performed by Attagene Inc. (Morrisville NC) under contract to EPA.
(§4) In addition to the cis-acting reporter genes (CIS), a modification of the approach was used to generate a trans-system (TRANS) with a mammalian one-hybrid assay consisting of an additional 25 MRTU library reporting the activity of nuclear receptor super-family members. […] Chemicals were then tested in the CIS and TRANS assays at seven concentrations starting at the MTC and followed by three-fold serial dilutions. These assays were performed by Attagene Inc. (Morrisville NC) under contract to EPA. Detailed description of the methods, data and analysis methods for this dataset will be presented in a separate publication.

CYP1A2 = assay: CLZD_CYP1A2: Change in expression of CYP1A2 (primary human hepatocytes); type: cell-based; conditions: 24 hr
Procedure: as §1, §2

PXR (NR1I2) [7] = target: T1, PXR (NR1I2); assay: NVS_NR_hPXR: Human PXR Fluormone PXR (SXR) green (cell-free HTS); type: binding
From the text: These are a collection of biochemical assays measuring binding constants and enzyme inhibition values. Chemicals were initially screened at a single concentration in duplicate wells at a concentration of 10 [drawing 63] M for cytochrome P-450 assays and 25 [drawing 64] M for all others. […] These assays were run by Caliper Life Sciences (Hanover, MD) under contract to EPA. Short assay descriptions are available at: http://www.caliperls.com/products/contract-research/in-vitro/.
Cell-free HTS Assays: A collection of biochemical assays measuring binding constants and enzyme inhibition values. […] These assays were run by Caliper Life Sciences (Hanover, MD) under contract to EPA. Short assay descriptions are available at http://www.caliperls.com/products/contract-research/in-vitro/. Values for all endpoints were imported into GeneData Screener (Basel, Switzerland) and normalised to solvent controls from the same plate as the tested compounds and expressed as percent of neutral control. Concentration-response curves were fit in GeneData Screener (Basel, Switzerland) Condeseo module using the Hill equation and AC50 values were determined. […] Detailed description of the methods, data and analysis methods for this dataset are described in a separate publication.

[8] = target: T2, PPARG (peroxisome proliferator-activated receptor gamma) (Homo sapiens, UniProt P37231); assay: ATG_PPARg_TRANS: Factorial reporter gene assay (HepG2); type: cell-based
T2 construct: expressed in transfected cells; host or cells: HepG2
T2 sequence (P37231 1-505): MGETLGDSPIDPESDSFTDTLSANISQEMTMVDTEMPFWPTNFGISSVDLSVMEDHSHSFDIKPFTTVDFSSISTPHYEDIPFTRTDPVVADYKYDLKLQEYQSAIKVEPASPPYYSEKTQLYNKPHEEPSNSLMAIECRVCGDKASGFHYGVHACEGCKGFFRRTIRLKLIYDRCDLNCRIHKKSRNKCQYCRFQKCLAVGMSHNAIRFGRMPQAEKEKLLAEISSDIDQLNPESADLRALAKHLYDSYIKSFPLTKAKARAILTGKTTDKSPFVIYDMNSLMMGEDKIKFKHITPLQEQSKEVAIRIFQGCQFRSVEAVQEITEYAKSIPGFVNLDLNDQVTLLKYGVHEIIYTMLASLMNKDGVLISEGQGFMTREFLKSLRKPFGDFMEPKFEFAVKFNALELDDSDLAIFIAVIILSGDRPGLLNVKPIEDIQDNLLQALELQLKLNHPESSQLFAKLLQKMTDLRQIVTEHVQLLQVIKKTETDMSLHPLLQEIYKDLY
Procedure: as §3, §4

PXR (NR1I2) [9] = target: T1, PXR (NR1I2); assay: ATG_PXR_TRANS: Factorial reporter gene assay (HepG2); type: cell-based; parameters: endogenous in cells; host or cells: HepG2; conditions: HepG2
Procedure: as §3, §4

[10] = mouse chronic study, liver, coded 6 / Inf, code not explained in table
[11] = rat chronic study, liver, coded 6 / 0, code not explained in table

COC(=O)c1c(C(F)F)nc(C(F)(F)F)c(C2=NCCS2)c1CC(C)C [chemical 297]
CHR_Mouse_Liver_1_AnyLesion (Mouse Liver [1]; [10]): 6
CHR_Mouse_Liver_2_PreneoplasticLesion (Mouse Liver [2]; [10]): 6
CHR_Rat_Liver_1_AnyLesion (Rat Liver [3]; [11]): 6
CHR_Rat_Liver_2_PreneoplasticLesion (Rat Liver [4]; [11]): 0
CHR_Rat_Liver_3_NeoplasticLesion (Rat Liver [5]; [11]): 0

O=C(Nc1ccccc1)Nc1cnns1 [chemical 298]
CHR_Mouse_Liver_1_AnyLesion (Mouse Liver [1]; [10]): 6
CHR_Mouse_Liver_2_PreneoplasticLesion (Mouse Liver [2]; [10]): 6
CHR_Rat_Liver_1_AnyLesion (Rat Liver [3]; [11]): 0
CHR_Rat_Liver_2_PreneoplasticLesion (Rat Liver [4]; [11]): 0
CHR_Rat_Liver_3_NeoplasticLesion (Rat Liver [5]; [11]): 0

COc1nc(C)nc(NC(=O)NS(=O)(=O)c2ccccc2OCCCl)n1 [chemical 307]
CHR_Mouse_Liver_1_AnyLesion (Mouse Liver [1]; [10]): 6
CHR_Mouse_Liver_2_PreneoplasticLesion (Mouse Liver [2]; [10]): 6
CHR_Rat_Liver_1_AnyLesion (Rat Liver [3]; [11]): 0
CHR_Rat_Liver_2_PreneoplasticLesion (Rat Liver [4]; [11]): 0
CHR_Rat_Liver_3_NeoplasticLesion (Rat Liver [5]; [11]): 0

CCCOC/C(=N\c1ccc(Cl)cc1C(F)(F)F)n1ccnc1 [chemical 315]
CHR_Mouse_Liver_1_AnyLesion (Mouse Liver [1]; [10]): 6
CHR_Mouse_Liver_2_PreneoplasticLesion (Mouse Liver [2]; [10]): 6
CHR_Rat_Liver_1_AnyLesion (Rat Liver [3]; [11]): 6
CHR_Rat_Liver_2_PreneoplasticLesion (Rat Liver [4]; [11]): 6
CHR_Rat_Liver_3_NeoplasticLesion (Rat Liver [5]; [11]): 0

COc1cnc(OC)n2nc(NS(=O)(=O)c3c(OCC(F)F)cccc3C(F)(F)F)nc12 [r239]
CLZD_CYP2B6_24 (CYP2B6): 4.844
CLZD_CYP3A4_24 (CYP3A4): 4.931
CHR_Rat_Liver_1_AnyLesion (Rat Liver [3]; rat, chronic study): 6
CHR_Rat_Liver_2_PreneoplasticLesion (Rat Liver [4]; rat, chronic study): 0
CHR_Rat_Liver_3_NeoplasticLesion (Rat Liver [5]; rat, chronic study): 0
ATG_PXRE_CIS (PXR (NR1I2) [6]; HepG2): 4.585

Cc1nc(N(C)C)nc(OC(=O)N(C)C)c1C [r247]
CLZD_CYP1A2_24 (CYP1A2): 5.15
CLZD_CYP2B6_24 (CYP2B6): 5.267
ATG_PXRE_CIS (PXR (NR1I2) [6]; HepG2): 4.301

COc1nc(C)nc(NC(=O)NS(=O)(=O)c2ccccc2CCC(F)(F)F)n1 [r266]
CLZD_CYP2B6_24 (CYP2B6): 5.694
CLZD_CYP3A4_24 (CYP3A4): 5.037
CHR_Mouse_Liver_1_AnyLesion (Mouse Liver [1]; chronic study, mouse liver): 6
CHR_Rat_Liver_1_AnyLesion (Rat Liver [3]; chronic study, rat liver): 0
CHR_Rat_Liver_2_PreneoplasticLesion (Rat Liver [4]; chronic study, rat liver): 0
CHR_Rat_Liver_3_NeoplasticLesion (Rat Liver [5]; chronic study, rat liver): 0
ATG_PXRE_CIS (PXR (NR1I2) [6]; HepG2 reporter): 4.377

COc1nc(C)nc(NC(=O)NS(=O)(=O)c2ccccc2CCC(F)(F)F)n1 [r268]
NVS_NR_hPXR (PXR (NR1I2) [7]): 4.469
CHR_Mouse_Liver_1_AnyLesion (Mouse Liver [1]; chronic study, mouse liver): 6
CHR_Rat_Liver_1_AnyLesion (Rat Liver [3]; chronic study, rat liver): 0
CHR_Rat_Liver_2_PreneoplasticLesion (Rat Liver [4]; chronic study, rat liver): 0
CHR_Rat_Liver_3_NeoplasticLesion (Rat Liver [5]; chronic study, rat liver): 0
ATG_PXRE_CIS (PXR (NR1I2) [6]; HepG2 reporter): 4.509

CC(COc1ccc(Oc2ccccc2)cc1)Oc1ccccn1 (centres unmarked) [r274]
ATG_PPARg_TRANS ([8]; HepG2 reporter): 4.42
CLZD_CYP2B6_24 (CYP2B6): 5.377
CLZD_CYP3A4_24 (CYP3A4): 5.096
CHR_Rat_Liver_1_AnyLesion (Rat Liver [3]; chronic study, rat liver): 0
CHR_Rat_Liver_2_PreneoplasticLesion (Rat Liver [4]; chronic study, rat liver): 0
CHR_Rat_Liver_3_NeoplasticLesion (Rat Liver [5]; chronic study, rat liver): 0
ATG_PXRE_CIS (PXR (NR1I2) [6]; HepG2 reporter): 4.886

CCC/C(=N\OCC)C1=C(O)CC(CC(C)SCC)CC1=O (centres unmarked) [r283]
CLZD_CYP2B6_24 (CYP2B6): 5.082
CLZD_CYP3A4_24 (CYP3A4): 4.556
CHR_Mouse_Liver_1_AnyLesion (Mouse Liver [1]; chronic study, mouse liver): 6
CHR_Mouse_Liver_2_PreneoplasticLesion (Mouse Liver [2]; chronic study, mouse liver): 6
CHR_Rat_Liver_1_AnyLesion (Rat Liver [3]; chronic study, rat liver): 6
CHR_Rat_Liver_2_PreneoplasticLesion (Rat Liver [4]; chronic study, rat liver): 6
CHR_Rat_Liver_3_NeoplasticLesion (Rat Liver [5]; chronic study, rat liver): 0
ATG_PXRE_CIS (PXR (NR1I2) [6]; HepG2 reporter): 4.62

N#CSCSC#N [row 206]
CLZD_CYP2B6_24 (CYP2B6): 5.076
NVS_NR_hPXR (PXR (NR1I2) [7]): 5.324
ATG_PXRE_CIS (PXR (NR1I2) [6]; HepG2): 5.699

CSc1nnc(C(C)(C)C)c(=O)n1N [row 209]
CLZD_CYP2B6_24 (CYP2B6): 5.115
CHR_Rat_Liver_1_AnyLesion (Rat Liver [3]; chronic rat study, liver): 0
CHR_Rat_Liver_2_PreneoplasticLesion (Rat Liver [4]; chronic rat study, liver): 0
CHR_Rat_Liver_3_NeoplasticLesion (Rat Liver [5]; chronic rat study, liver): 0

CCSC(=O)N1CCCCCC1 [row 214]
CHR_Rat_Liver_1_AnyLesion (Rat Liver [3]; chronic rat study, liver): 0
CHR_Rat_Liver_2_PreneoplasticLesion (Rat Liver [4]; chronic rat study, liver): 0
CHR_Rat_Liver_3_NeoplasticLesion (Rat Liver [5]; chronic rat study, liver): 0
ATG_PXR_TRANS (PXR (NR1I2) [9]): 4.208
ATG_PXRE_CIS (PXR (NR1I2) [6]; HepG2): 4.602

O=C(Nc1ccc([N+](=O)[O-])cc1Cl)c1cc(Cl)ccc1O [row 220]
ATG_PPARg_TRANS ([8]; HepG2): 6.252
ATG_PXRE_CIS (PXR (NR1I2) [6]; HepG2): 6.367
